# Results taken from PMC10269561, “Absence of Clinically Meaningful Drug-Drug Interactions with Rezafungin: Outcome of Investigations” (Microbiology Spectrum, 2023).
# Numbered stars: 1 amine (or outer) side, 2 acyl side, 3 side chain; on linkers, the order of the positions; unused ones are H or OH. Bridge positions count the residues as written; N and C are the ends. Square brackets hold non-standard residues; d marks the D form. Peptide text beside a SMILES is read from it. * marks the point of attachment. Orn(4R-OH,5R-OCH2CH2NMe3+) = C[N+](C)(C)CCO[C@@H](N[*:3])[C@H](O)C[C@H](N[*:1])C(=O)[*:2]; pTerphenylCO(4''-OnC5H11) = CCCCCOc1ccc(-c2ccc(-c3ccc(C(=O)*)cc3)cc2)cc1; hTyr(3S-OH,4S-OH) = N[C@H](C(=O)O)[C@H](O)[C@@H](O)c1ccc(O)cc1; Pro(3S-OH,4S-Me) = C[C@H]1CN[C@H](C(=O)O)[C@H]1O; Hyp = O=C(O)[C@@H]1C[C@@H](O)CN1
# Tests used:
# CYP1A2 = CYP1A2 (Homo sapiens, UniProt P05177); conditions: human liver microsomes; 0.1 to 25 μM; NC-153
# Chain of CYP1A2 (P05177 whole entry): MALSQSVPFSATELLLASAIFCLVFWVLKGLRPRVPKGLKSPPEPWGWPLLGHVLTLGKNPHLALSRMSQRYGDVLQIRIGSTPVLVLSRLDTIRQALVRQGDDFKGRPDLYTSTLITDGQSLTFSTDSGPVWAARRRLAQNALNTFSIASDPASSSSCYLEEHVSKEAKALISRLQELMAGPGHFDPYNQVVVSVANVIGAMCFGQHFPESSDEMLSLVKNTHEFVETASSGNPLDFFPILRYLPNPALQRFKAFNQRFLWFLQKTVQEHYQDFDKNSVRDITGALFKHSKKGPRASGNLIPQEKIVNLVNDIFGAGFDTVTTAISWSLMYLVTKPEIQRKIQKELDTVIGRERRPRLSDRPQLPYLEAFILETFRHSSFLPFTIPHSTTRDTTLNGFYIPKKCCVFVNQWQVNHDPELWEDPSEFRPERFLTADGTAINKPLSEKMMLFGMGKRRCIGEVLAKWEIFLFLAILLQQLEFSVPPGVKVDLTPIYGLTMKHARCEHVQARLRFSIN
# From the text: (§1) Microbiology Spectrum Supplementary materials
# (§2) Table S 4Summary of initial in vitro assessments […]
# (§3) whether rezafungin can induce CYP isoforms 1A2, 2B6, or 3A4. mRNA expression) of CYP1A2 and CYP2B6, and, in the case of […]
# (§4) Abbreviations: ABC = ATP binding cassette; BCRP = breast cancer resistance protein; BSEP = bile salt export pump; CYP = cytochrome P450; MATE = multidrug and toxic compound extrusion; MDCK = Madin-Darby canine kidney; MDR = multidrug resistance protein; mRNA = messenger ribonucleic acid; OAT = organic anion transporter; OATP = organic anion transporter protein; OCT – organic cation transporter; OCTN = organic cation transporter novel; P-gp = P-glycoprotein; SLC = solute carrier.
# CYP2B6 = CYP2B6 (Homo sapiens, UniProt P20813); conditions: human liver microsomes; 0.1 to 25 μM; NC-153
# From the text: as §1, §2, §3, §4
# CYP3A4 = CYP3A4 (Homo sapiens, UniProt P08684); conditions: human liver microsomes; midazolam and testosterone as substrates; 0.1 to 25 μM; NC-153
# Chain of CYP3A4 (P08684 whole entry): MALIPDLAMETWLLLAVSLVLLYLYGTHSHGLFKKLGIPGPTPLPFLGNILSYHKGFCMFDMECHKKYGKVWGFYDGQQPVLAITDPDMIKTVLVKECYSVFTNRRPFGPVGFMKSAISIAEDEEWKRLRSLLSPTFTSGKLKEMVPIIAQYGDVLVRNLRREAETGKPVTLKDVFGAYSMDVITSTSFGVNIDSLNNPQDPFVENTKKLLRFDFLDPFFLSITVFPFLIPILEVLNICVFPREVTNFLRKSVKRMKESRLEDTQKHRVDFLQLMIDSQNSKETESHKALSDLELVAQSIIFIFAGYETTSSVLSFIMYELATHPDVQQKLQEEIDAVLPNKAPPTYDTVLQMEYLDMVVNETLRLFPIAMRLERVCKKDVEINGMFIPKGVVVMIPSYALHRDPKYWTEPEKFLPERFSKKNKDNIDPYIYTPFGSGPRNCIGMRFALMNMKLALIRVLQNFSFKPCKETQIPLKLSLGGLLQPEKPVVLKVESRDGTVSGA
# From the text: as §1, §2, §3, §4
# human OATP1B3 = human OATP1B3 (Homo sapiens, UniProt Q9NPD5); experiment: NC-052 OATP1B3 substrate study in transiently transfected HEK293 cells; assay type: in vitro ADME
# Chain of human OATP1B3 (Q9NPD5 whole entry): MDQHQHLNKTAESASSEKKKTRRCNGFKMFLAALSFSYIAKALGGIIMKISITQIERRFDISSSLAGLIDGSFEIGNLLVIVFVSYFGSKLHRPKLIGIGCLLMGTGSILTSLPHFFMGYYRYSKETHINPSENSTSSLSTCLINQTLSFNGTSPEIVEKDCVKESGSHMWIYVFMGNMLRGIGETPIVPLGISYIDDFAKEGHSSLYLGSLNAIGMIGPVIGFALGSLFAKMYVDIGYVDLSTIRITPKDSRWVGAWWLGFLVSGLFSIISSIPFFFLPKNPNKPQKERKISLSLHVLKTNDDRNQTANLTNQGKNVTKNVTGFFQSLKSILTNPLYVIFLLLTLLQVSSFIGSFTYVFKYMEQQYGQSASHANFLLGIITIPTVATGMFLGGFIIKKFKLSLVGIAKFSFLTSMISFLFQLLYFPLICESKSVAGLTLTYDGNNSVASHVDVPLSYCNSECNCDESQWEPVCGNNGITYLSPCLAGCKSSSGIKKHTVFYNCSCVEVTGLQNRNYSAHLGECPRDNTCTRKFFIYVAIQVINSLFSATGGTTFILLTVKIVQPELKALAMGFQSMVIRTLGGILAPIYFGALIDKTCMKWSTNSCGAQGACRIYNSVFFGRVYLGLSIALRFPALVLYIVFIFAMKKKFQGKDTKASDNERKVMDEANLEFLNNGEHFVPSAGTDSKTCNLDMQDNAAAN
# From the text: as §1, §2, §3, §4
# [1] = cited from earlier work
# From the text: Rezafungin is a novel echinocandin currently in development for the treatment of candidemia and invasive candidiasis as well as for prophylaxis against fungal diseases caused by Candida, Aspergillus, and Pneumocystis species in people undergoing allogeneic blood and marrow transplantation ([33][–][35]). […] It has als ...
# CYP2C8 = molecular target: T1, CYP2C8 (Homo sapiens, UniProt P10632); experiment: NC-013 CYP2C8 inhibition in human liver microsomes; assay type: in vitro ADME; design: in human liver microsomal preparations; from tissue; host or cells: human liver microsomes; conditions: read-out: IC50, CYP2C8 (weak inhibition)
# T1 sequence (P10632 1-490): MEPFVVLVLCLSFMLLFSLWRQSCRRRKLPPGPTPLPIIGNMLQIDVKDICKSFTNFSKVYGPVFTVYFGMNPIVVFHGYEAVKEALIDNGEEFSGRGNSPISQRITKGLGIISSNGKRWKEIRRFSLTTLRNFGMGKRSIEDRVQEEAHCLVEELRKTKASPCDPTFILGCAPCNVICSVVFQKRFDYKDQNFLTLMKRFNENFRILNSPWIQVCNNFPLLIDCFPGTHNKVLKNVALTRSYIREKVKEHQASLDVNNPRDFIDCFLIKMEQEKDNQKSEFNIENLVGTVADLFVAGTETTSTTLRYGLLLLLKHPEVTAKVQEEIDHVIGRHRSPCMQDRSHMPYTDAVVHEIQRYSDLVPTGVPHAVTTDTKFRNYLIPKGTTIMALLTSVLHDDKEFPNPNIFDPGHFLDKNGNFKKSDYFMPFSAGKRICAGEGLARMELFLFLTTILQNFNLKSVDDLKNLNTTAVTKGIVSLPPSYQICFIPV
# From the text: (§5) Abbreviations: ABC = ATP binding cassette; BCRP = breast cancer resistance protein; BSEP = bile salt export pump; CYP = cytochrome P450; MATE =
# (§6) multidrug and toxic compound extrusion; MDCK = Madin-Darby canine kidney; MDR = multidrug resistance protein; mRNA = messenger ribonucleic acid;
# (§7) OAT = organic anion transporter; OATP = organic anion transporter protein; OCT – organic cation transporter; OCTN = organic cation transporter novel; P-gp =
# (§8) P-glycoprotein; SLC = solute carrier.
# human OATP1B1 [2] = molecular target: T2, human OATP1B1 (Homo sapiens, UniProt Q9Y6L6); experiment: NC-052 OATP1B1 substrate study in transiently transfected HEK293 cells; assay type: in vitro ADME
# T2 sequence (Q9Y6L6 whole entry): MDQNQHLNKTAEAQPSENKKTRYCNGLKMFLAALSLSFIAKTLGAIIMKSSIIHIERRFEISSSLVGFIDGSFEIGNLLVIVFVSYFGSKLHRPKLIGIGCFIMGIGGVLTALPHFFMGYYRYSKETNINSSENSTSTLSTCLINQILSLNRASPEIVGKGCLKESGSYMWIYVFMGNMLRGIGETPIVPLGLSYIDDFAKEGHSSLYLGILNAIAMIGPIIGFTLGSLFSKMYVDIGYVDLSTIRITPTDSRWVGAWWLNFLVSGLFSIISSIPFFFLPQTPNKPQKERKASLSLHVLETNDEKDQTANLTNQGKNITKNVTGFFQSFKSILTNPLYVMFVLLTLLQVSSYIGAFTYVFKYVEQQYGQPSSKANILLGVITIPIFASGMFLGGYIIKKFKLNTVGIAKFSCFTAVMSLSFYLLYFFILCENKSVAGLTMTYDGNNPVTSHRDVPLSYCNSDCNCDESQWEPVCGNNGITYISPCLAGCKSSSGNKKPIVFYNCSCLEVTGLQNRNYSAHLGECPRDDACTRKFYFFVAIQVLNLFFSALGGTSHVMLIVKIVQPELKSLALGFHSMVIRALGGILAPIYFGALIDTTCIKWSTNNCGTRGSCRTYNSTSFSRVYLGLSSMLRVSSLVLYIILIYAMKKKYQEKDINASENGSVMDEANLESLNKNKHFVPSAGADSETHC
# From the text: as §1, §2, §3, §4
# OCT1 [3] = molecular target: T3, OCT1 (Homo sapiens, UniProt O15245); experiment: NC-152 transporter inhibition, OCT1; assay type: in vitro ADME
# T3 sequence (O15245 1-554): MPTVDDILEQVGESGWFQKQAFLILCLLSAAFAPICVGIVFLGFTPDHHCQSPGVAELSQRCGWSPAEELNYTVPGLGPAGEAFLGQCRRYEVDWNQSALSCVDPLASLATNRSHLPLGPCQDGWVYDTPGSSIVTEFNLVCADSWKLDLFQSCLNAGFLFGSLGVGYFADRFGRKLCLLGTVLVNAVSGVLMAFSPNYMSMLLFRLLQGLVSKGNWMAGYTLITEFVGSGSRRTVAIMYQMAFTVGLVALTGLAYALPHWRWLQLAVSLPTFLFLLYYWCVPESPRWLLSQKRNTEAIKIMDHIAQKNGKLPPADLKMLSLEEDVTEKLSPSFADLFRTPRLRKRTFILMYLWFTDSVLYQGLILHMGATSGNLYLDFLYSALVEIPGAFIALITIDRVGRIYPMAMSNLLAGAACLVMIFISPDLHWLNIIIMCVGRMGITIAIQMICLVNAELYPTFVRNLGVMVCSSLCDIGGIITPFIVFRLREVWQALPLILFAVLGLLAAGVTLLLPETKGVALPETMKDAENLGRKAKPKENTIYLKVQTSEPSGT
# From the text: as §5, §6, §7, §8
# human OATP1B1 [4] = molecular target: T2, human OATP1B1; experiment: NC-152 transporter inhibition, OATP1B1; assay type: in vitro ADME; conditions: in vitro cell test system
# From the text: as §1, §2, §3, §4
# OCTN1 = OCTN1 (Homo sapiens, UniProt Q9H015); experiment: NC-160 substrate interaction, OCTN1; assay type: in vitro ADME; conditions: uptake SLC transporter
# Chain of OCTN1 (Q9H015 whole entry): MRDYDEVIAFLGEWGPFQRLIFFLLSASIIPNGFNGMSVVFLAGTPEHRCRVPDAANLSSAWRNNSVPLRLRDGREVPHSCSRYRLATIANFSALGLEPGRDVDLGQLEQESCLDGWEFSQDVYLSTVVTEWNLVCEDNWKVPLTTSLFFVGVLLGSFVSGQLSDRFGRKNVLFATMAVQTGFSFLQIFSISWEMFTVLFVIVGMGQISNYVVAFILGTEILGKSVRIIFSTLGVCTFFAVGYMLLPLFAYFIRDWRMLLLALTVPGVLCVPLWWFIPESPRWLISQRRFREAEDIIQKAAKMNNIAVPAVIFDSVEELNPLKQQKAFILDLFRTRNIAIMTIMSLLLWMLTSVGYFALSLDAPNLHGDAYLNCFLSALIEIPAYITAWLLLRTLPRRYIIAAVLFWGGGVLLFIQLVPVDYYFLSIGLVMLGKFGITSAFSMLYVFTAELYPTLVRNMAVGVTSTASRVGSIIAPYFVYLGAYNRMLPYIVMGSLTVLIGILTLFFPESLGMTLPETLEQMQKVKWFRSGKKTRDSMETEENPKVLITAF
# From the text: as §1, §2, §3, §4
# MRP2 = MRP2 (Homo sapiens, UniProt Q92887); experiment: NC-160 substrate interaction, MRP2; assay type: in vitro ADME; conditions: efflux (ABC) transporter
# Chain of MRP2 (Q92887 whole entry): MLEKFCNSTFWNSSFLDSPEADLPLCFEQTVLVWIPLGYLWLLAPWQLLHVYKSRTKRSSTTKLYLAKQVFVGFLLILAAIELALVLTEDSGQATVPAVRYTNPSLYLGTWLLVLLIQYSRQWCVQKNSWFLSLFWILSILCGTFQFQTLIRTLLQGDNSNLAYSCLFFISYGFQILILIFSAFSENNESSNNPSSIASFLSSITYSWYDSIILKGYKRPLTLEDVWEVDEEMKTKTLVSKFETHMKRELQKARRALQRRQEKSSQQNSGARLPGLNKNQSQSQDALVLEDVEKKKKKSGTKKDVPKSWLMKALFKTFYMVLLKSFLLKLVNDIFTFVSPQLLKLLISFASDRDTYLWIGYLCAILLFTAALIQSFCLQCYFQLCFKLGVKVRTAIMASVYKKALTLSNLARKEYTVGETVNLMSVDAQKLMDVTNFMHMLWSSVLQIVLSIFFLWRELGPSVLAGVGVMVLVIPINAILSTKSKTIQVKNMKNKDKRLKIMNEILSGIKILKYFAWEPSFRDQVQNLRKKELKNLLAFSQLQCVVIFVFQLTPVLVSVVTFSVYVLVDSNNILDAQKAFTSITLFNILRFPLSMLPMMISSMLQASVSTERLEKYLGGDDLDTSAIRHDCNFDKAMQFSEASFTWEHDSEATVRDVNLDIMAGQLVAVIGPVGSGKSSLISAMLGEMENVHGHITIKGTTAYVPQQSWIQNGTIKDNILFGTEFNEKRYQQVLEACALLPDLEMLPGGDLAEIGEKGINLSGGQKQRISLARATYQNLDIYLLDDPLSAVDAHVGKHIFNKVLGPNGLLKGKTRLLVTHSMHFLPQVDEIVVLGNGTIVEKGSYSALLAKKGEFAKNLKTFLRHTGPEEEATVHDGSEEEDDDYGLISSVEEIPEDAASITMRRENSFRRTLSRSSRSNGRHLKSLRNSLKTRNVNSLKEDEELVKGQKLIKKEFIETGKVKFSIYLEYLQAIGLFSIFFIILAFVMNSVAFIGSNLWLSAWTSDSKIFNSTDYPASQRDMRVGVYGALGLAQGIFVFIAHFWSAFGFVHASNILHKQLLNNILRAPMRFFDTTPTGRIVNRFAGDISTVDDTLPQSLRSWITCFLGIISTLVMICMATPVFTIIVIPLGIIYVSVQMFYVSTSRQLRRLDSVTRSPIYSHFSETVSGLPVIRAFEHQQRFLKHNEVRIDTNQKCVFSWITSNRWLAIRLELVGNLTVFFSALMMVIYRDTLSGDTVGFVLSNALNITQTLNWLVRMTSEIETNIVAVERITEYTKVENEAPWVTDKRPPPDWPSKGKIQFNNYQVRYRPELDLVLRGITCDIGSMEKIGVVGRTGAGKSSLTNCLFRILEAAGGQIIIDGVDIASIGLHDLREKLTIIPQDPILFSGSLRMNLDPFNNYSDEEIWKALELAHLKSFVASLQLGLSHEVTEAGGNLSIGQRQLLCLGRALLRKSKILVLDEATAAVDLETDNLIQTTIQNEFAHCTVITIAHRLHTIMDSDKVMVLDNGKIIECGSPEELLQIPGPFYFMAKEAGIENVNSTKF
# From the text: as §1, §2, §3, §4
# BCRP = BCRP (Homo sapiens, UniProt Q9UNQ0); experiment: NC-160 substrate interaction, BCRP; assay type: in vitro ADME; conditions: efflux (ABC) transporter
# From the text: as §1, §2, §3, §4
# human MATE1 = human MATE1 (Homo sapiens, UniProt Q96FL8); experiment: NC-152 transporter inhibition, MATE1; assay type: in vitro ADME
# Chain of human MATE1 (Q96FL8 whole entry): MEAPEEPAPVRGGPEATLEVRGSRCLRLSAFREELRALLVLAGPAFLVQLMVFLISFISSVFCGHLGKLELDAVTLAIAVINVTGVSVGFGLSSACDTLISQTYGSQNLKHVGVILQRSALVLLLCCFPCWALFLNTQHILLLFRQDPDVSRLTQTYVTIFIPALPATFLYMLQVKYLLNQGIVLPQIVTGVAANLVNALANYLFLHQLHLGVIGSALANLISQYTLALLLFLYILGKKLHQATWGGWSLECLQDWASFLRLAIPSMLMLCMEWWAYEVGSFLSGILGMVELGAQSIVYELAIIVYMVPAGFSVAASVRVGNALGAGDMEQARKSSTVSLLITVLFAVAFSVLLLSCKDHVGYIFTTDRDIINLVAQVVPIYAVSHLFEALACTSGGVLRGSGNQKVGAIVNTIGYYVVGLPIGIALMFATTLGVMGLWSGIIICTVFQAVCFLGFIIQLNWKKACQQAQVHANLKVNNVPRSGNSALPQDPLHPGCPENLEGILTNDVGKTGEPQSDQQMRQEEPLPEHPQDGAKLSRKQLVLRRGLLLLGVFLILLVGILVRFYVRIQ
# From the text: as §5, §6, §7, §8
# OCTN2 = OCTN2 (Homo sapiens, UniProt O76082); experiment: NC-160 substrate interaction, OCTN2; assay type: in vitro ADME; conditions: uptake SLC transporter
# From the text: as §1, §2, §3, §4
# OCT1 [5] = molecular target: T3, OCT1; experiment: NC-160 substrate interaction, OCT1; assay type: in vitro ADME; conditions: uptake SLC transporter
# From the text: as §1, §2, §3, §4
# CYP2C9 = CYP2C9 (Homo sapiens, UniProt P11712); experiment: NC-012 CYP450 inhibition screening, recombinant CYP2C9; assay type: in vitro ADME; conditions: 10 μM, fluorogenic substrate, recombinant human CYP
# From the text: as §1, §2, §3, §4
# [6] = in vitro cell test system, NC-152
structure (smiles),measurement,setting,value
"CCCCCOc1ccc(-c2ccc(-c3ccc(C(=O)N[C@H]4C[C@@H](O)[C@@H](OCC[N+](C)(C)C)NC(=O)[C@@H]5[C@@H](O)[C@@H](C)CN5C(=O)[C@H]([C@@H](C)O)NC(=O)[C@H]([C@H](O)[C@@H](O)c5ccc(O)cc5)NC(=O)[C@@H]5C[C@@H](O)CN5C(=O)[C@H]([C@@H](C)O)NC4=O)cc3)cc2)cc1 [Rezafungin] ({pTerphenylCO(4''-OnC5H11)}-[Orn(4R-OH,5R-OCH2CH2NMe3+)]T[Hyp][hTyr(3S-OH,4S-OH)]T[Pro(3S-OH,4S-Me)]; lactam 1-C)",time-dependent inhibitor of CYP1A2,CYP1A2,not a time-dependent inhibitor
same,time-dependent inhibitor of CYP2B6,CYP2B6,not a time-dependent inhibitor
same,time-dependent inhibitor of CYP3A4,CYP3A4,not a time-dependent inhibitor
same,substrate of OATP1B3,human OATP1B3,not to be a substrate
same,"uptake ratio, OATP1B3",human OATP1B3,< 2
same,half-life,[1],around 130 h
same,chemical stability,"[1]; incubated in phosphate-buffered saline, no evidence of reactive intermediate formation",chemically stable
same,metabolic stability in hepatocytes,[1]; preclinical data,metabolically stable
same,metabolic stability in liver microsomes,[1]; preclinical data,metabolically stable
same,IC50,CYP2C8,> 25 µM
same,substrate of OATP1B1,human OATP1B1 [2],not to be a substrate
same,"uptake ratio, OATP1B1",human OATP1B1 [2],< 2
same,inhibitor of probe substrate transport mediated via OCT1,OCT1 [3]; [6],determined to be an inhibitor
same,IC50,"OCT1 [3]; initial in vitro studies, read-out: IC50, OCT-1 uptake transporter (moderate inhibition)",> 6 µM
same,inhibitor of probe substrate transport mediated via OATP1B1,human OATP1B1 [4],determined to be an inhibitor
same,substrate of OCTN1,OCTN1,not a substrate
same,substrate of MRP2,MRP2,not a substrate
same,substrate of BCRP,BCRP,not a substrate
same,inhibitor of probe substrate transport mediated via MATE1,human MATE1; [6],determined to be an inhibitor
same,IC50,"human MATE1; initial in vitro studies, read-out: IC50, MATE-1 uptake transporter (moderate inhibition)",> 6 µM
same,substrate of OCTN2,OCTN2,not a substrate
same,substrate of OCT1,OCT1 [5],not a substrate
same,inhibition of CYP2C9,CYP2C9,Minimal inhibition
